Patent US7799824B2, “Quaternary salt CCR2 antagonists” (OraPharma, Inc., priority 2004, dated 2010)

Molecular target: T1, CCR2 (Homo sapiens, UniProt P41597)
T1 sequence (P41597 1-360 isoform P41597-2): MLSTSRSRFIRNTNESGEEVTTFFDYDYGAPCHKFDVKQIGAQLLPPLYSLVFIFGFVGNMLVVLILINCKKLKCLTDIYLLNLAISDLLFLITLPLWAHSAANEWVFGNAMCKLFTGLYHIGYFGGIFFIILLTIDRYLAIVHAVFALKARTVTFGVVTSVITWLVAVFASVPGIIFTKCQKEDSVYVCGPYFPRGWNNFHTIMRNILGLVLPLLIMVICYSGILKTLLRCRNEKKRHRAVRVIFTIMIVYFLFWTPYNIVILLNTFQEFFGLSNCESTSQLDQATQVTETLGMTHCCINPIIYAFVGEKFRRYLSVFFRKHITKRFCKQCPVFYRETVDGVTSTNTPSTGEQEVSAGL
Assay: MCP-1 Receptor Binding Assay in THP-1 Cells
Conditions: for IC50: THP-1 cells, 0.5 nM 125I labeled MCP-1, 2 hours at 30° C., read-out: Mean Ligand Binding IC50 (inhibition of MCP-1 binding to CCR2); for inhibition at 25 µM: MCP-1 binding to CCR2, test concentration of 25 μM, unless indicated otherwise, read-out: % Inhibition Ligand Binding
Procedure: THP-1 cells were obtained from American Type Culture Collection (Manassas, Va., USA). […] The cell density was maintained between 0.5×10^6 cells/mL.
Cells were then harvested onto a filter plate, dried, and 20 μL of Microscint 20 was added to each well. Plates were counted in a TopCount NXT, Microplate Scintillation & Luminescence Counter (Perkin-Elmer Life Sciences, Inc. Boston, Mass.). Blank values (buffer only) were subtracted from all values and drug treated values were compared to vehicle treated values. 1 μM cold MCP-1 was used for nonspecific binding.

| SMILES | IC50 | inhibition at 25 µM |
| --- | --- | --- |
| C[N+](C)(Cc1ccc(CNC(=O)C=Cc2cccc(Br)c2)cc1)C1CCCCC1 [Cpd 1, (4-{[3-(3-bromo-phenyl)-acryloylamino]-methyl}-benzyl)-cyclohexyl-dimethyl-ammonium iodide] | 2300 nM |  |
| C[N+](C)(Cc1ccc(CNC(=O)c2cccc(Br)c2)cc1)C1CCCCC1 [Cpd 2, {4-[(3-bromo-benzoylamino)-methyl]-benzyl}-cyclohexyl-dimethyl-ammonium iodide] | 5500 nM |  |
| C[N+](C)(Cc1ccc(CNC(=O)c2cccc(C(F)(F)F)c2)cc1)C1CCCCC1 [Cpd 3, cyclohexyl-dimethyl-{4-[(3-trifluoromethyl-benzoylamino)-methyl]-benzyl}-ammonium iodide] | 4300 nM |  |
| C[N+](C)(Cc1ccc(CNC(=O)C=Cc2ccc(Cl)c(Cl)c2)cc1)C1CCOCC1 [Cpd 4, (4-{[3-(3,4-dichloro-phenyl)-acryloylamino]-methyl}-benzyl)-dimethyl-(tetrahydro-pyran-4-yl)-ammonium iodide] | 3100 nM |  |
| C[N+](C)(Cc1ccc(CNC(=O)C=Cc2cccc(Br)c2)cc1)C1CCOCC1 [Cpd 5, (4-{[3-(3-bromo-phenyl)-acryloylamino]-methyl}-benzyl)-dimethyl-(tetrahydro-pyran-4-yl)-ammonium iodide] | 8300 nM |  |
| C[N+](C)(Cc1cccc(NC(=O)c2cccc(Br)c2)c1)C1CCOCC1 [Cpd 8, [3-(3-bromo-benzoylamino)-benzyl]-dimethyl-(tetrahydro-pyran-4-yl)-ammonium iodide] |  | 34% |
| C[N+](C)(Cc1ccc(NC(=O)c2cc(Cl)ccc2Cl)cc1)C1CCOCC1 [Cpd 11, [4-(2,5-dichloro-benzoylamino)-benzyl]-dimethyl-(tetrahydro-pyran-4-yl)-ammonium iodide] | 3100 nM |  |
| C[N+](C)(Cc1ccc(NC(=O)c2c(Cl)cccc2Cl)cc1)C1CCOCC1 [Cpd 12, [4-(2,6-dichloro-benzoylamino)-benzyl]-dimethyl-(tetrahydro-pyran-4-yl)-ammonium iodide] |  | 38% |
| C[N+](C)(Cc1ccc(NC(=O)c2ccc(Cl)c(Cl)c2)cc1)C[C@@H]1CCCO1 [Cpd 15, (2S)-[4-(3,4-dichloro-benzoylamino)-benzyl]-dimethyl-(tetrahydro-furan-2-ylmethyl)-ammonium iodide] | 2000 nM |  |
| C[N+](C)(Cc1ccc(NC(=O)c2ccc(Cl)c(Cl)c2)cc1)C[C@H]1CCCO1 [Cpd 16, (2R)-[4-(3,4-dichloro-benzoylamino)-benzyl]-dimethyl-(tetrahydro-furan-2-ylmethyl)-ammonium iodide] | 850 nM |  |
| C[N+](C)(Cc1ccc(NC(=O)c2ccc(Cl)c(Cl)c2)cc1)C1CCSC1 (stereo not shown) [Cpd 19, [4-(3,4-dichloro-benzoylamino)-benzyl]-dimethyl-(tetrahydro-thien-3-yl)-ammonium iodide] | 5 nM |  |
| CC[N+](C)(Cc1ccc(NC(=O)c2ccc(Cl)c(Cl)c2)cc1)C1CCOCC1 (stereo not shown) [Cpd 21, [4-(3,4-dichloro-benzoylamino)-benzyl]-ethyl-methyl-(tetrahydro-pyran-4-yl)-ammonium iodide] | 150 nM |  |
| CCC[N+](C)(Cc1ccc(NC(=O)c2ccc(Cl)c(Cl)c2)cc1)C1CCOCC1 (stereo not shown) [Cpd 22, [4-(3,4-dichloro-benzoylamino)-benzyl]-methyl-propyl-(tetrahydro-pyran-4-yl)-ammonium iodide] | 1600 nM |  |
| Cc1c(Cl)cccc1C(=O)Nc1ccc(C[N+](C)(C)C2CCOCC2)cc1 [Cpd 25, [4-(3-chloro-2-methyl-benzoylamino)-benzyl]-dimethyl-(tetrahydro-pyran-4-yl)-ammonium iodide] |  | 15% |
| COc1ccc(C(=O)Nc2ccc(C[N+](C)(C)C3CCOCC3)cc2)cc1Cl [Cpd 27, [4-(3-chloro-4-methoxy-benzoylamino)-benzyl]-dimethyl-(tetrahydro-pyran-4-yl)-ammonium iodide] | 750 nM |  |
| Cc1ccc(C(=O)Nc2ccc(C[N+](C)(C)C3CCOCC3)cc2)cc1Cl [Cpd 28, [4-(3-chloro-4-methyl-benzoylamino)-benzyl]-dimethyl-(tetrahydro-pyran-4-yl)-ammonium iodide] | 460 nM |  |
